Like-named read-outs stand apart in the source and are kept apart here.
Assays:
[1] = test system: T1, AMO-CFZ clone #7 (depleted ABCB1); experiment: cells; parameters: species or system AMO-CFZ clones 1 and 7; Cytotoxicity dose-response of myeloma drugs on AMO-CFZ clones with or without ABCB1, IC50; details: ABCB1 depleted clone #7
T1 construct: AMO-1 derived, carfilzomib-adapted, clone 7 ABCB1 depleted by CRISPR/Cas9 (subtotal elimination)
Description: (§1) To dissect the role of ABCB1 overexpression for the activity of standard myeloma drugs we compared the cytotoxic effects of such drugs on AMO-CFZ cells with (clone #1) or without such ABCB1 expression (clone 7) (Figure 3c and Supplementary Table S4). To score for good versus poor ABCB1-substrate myeloma drugs, we calculated the ratio of IC50 values between the ABCB1-containing and the ABCB1-deficient clone for each of the myeloma drug. […] (a) Western blot evaluation of the ABCB1 depletion in AMO-CFZ clones obtained by CRISPR/Cas9 genome editing tool. (b) Dose–response of AMO-CFZ clones with depleted ABCB1 to CFZ. Corresponding IC50 values are presented in Supplementary Table S3. (c) Dose–response of selected AMO-CFZ clones 1 and 7 to CFZ and convectional drugs used in the treatment of MM. (d) Dose–response of AMO-CFZ clones 1 and 7 to approved PI or those in clinical development. Corresponding IC50 values are presented in Supplementary Table S4. To directly address the functional role of ABCB1 for CFZ resistance, we eliminated ABCB1 protein in AMO-CFZ cells by CRISPR/Cas9 (for example, clone 7) (Figure 3a). We observed an inverse correlation between the levels of ABCB1 and myeloma cell sensitivity to CFZ (Figure 3b, Supplementary Table S3). […] Overexpressed ABCB1 is therefore a therapeutic target for CFZ-resistant myeloma.

[2] = test system: T2, AMO-CFZ clone #1 (upregulated ABCB1); experiment: cells; parameters: species or system AMO-CFZ clones 1 and 7; Cytotoxicity dose-response of myeloma drugs on AMO-CFZ clones with or without ABCB1, IC50; details: ABCB1 upregulated clone #1
T2 construct: AMO-1 derived, carfilzomib-adapted, clone 1 CRISPR/Cas9 clone retaining ABCB1 overexpression
Description: as §1

[3] = test system: T3, AMO-CFZ; experiment: cells; parameters: species or system AMO-1, AMO-BTZ, AMO-CFZ and AMO-CFZ clones #1 and #7; cell viability, MTS tetrazolium (CellTiter 96 AQueous One Solution), continuous treatment; details: Homo sapiens, AMO1, 48 h
T3 construct: AMO-1 derived, carfilzomib-adapted, ABCB1 overexpressing
Experimental: (§2) Generation of AMO-CFZ Ub-G67V-GFP cells AMO-CFZ cells were electroporated with a plasmid containing Ub-G76V-GFP [1] (obtained from Nico Dantuma; Addgene plasmid #11941) and subsequently cultured in the presence of selecting antibiotic G418 (500ng/ml, Gibco/Invitrogen, MA, USA). Subclones were obtained using MethoCult (StemCell Technologies, USA) and the clone with highest accumulation of fluorescence after BTZ treatment was chosen for further analysis. Assessment of cell viability Viability of cell lines was determined after 48h of treatment by MTS tetrazolium compound using CellTiter 96® AQueous One Solution) (Promega, WI, USA) according to manufactures protocol. PgP-Glo assay PgP-Glo assay (Promega, WI, USA) was performed according to manufacturer recommendations.  Figure 2 Comparison of dose–response of AMO-1 (sensitive) vs AMO-BTZ and AMO-CFZ (resistant) cells treated with PIs (BTZ and CFZ). (a) Residual activity of proteasome subunits visualized by activity-based probe labeling in intact cells after 1 h pulse treatment with indicated PIs. (b) Cell viability was measured after 48 hours of continuous treatment. Corresponding IC50 values are presented in Supplementary Table S2.  Figure 7 Sensitivity profile of ABCB1 inhibitors co-treatment with PIs used in the clinic or in clinical development in AMO-1, AMO-BTZ and AMO-CFZ cell lines. Dose–response curves of PI co-treated with NFV (10 μM) and LPV (10 μM). Corresponding IC50 values are presented in Supplementary Table S7.

[4] = test system: T2, AMO-CFZ clone #1 (upregulated ABCB1); experiment: cells; parameters: species or system AMO-1, AMO-BTZ, AMO-CFZ and AMO-CFZ clones #1 and #7; cell viability, MTS tetrazolium (CellTiter 96 AQueous One Solution), continuous treatment; details: Homo sapiens, AMO1, 48 h; CFZ alone
Experimental: as §2

[5] = test system: T4, AMO-BTZ; experiment: cells; parameters: species or system AMO-1, AMO-CFZ and AMO-CFZ clones #1 and #7; cell viability, MTS tetrazolium (CellTiter 96 AQueous One Solution), continuous treatment; details: Homo sapiens, AMO1, 48 h
T4 construct: AMO-1 derived, bortezomib-adapted
Experimental: as §2, with “recommendations.” for “recommendations. ”, “S2.” for “S2. ”, “Dose–response curves of PI co-treated with NFV (10 μM) and LPV (10 μM). Corresponding IC50 values are presented in Supplementary Table S7.” left out

[6] = test system: T2, AMO-CFZ clone #1 (upregulated ABCB1); experiment: cells; parameters: species or system AMO-1, AMO-BTZ, AMO-CFZ and AMO-CFZ clones #1 and #7; cell viability, MTS tetrazolium (CellTiter 96 AQueous One Solution), continuous treatment; details: Homo sapiens, AMO1, 48 h; CFZ alone; remark: listed apart in the source
Experimental: as §2, with “recommendations.” for “recommendations. ”, “S2.” for “S2. ”, “Dose–response curves of PI co-treated with NFV (10 μM) and LPV (10 μM). Corresponding IC50 values are presented in Supplementary Table S7.” left out

[7] = test system: AMO-1; experiment: cells; parameters: species or system AMO-BTZ, AMO-CFZ and AMO-CFZ clones #1 and #7; cell viability, MTS tetrazolium (CellTiter 96 AQueous One Solution), continuous treatment; details: Homo sapiens, AMO1, 48 h
Experimental: as §2, with “recommendations.” for “recommendations. ”, “S2.” for “S2. ”, “Dose–response curves of PI co-treated with NFV (10 μM) and LPV (10 μM). Corresponding IC50 values are presented in Supplementary Table S7.” left out

[8] = molecular target: ABCB1 (Homo sapiens, UniProt P08183); experiment: MitoTracker Green FM and MVB003 efflux (flow cytometry) in ABCB1-overexpressing AMO-CFZ cells
Sequence of ABCB1 (P08183 whole entry): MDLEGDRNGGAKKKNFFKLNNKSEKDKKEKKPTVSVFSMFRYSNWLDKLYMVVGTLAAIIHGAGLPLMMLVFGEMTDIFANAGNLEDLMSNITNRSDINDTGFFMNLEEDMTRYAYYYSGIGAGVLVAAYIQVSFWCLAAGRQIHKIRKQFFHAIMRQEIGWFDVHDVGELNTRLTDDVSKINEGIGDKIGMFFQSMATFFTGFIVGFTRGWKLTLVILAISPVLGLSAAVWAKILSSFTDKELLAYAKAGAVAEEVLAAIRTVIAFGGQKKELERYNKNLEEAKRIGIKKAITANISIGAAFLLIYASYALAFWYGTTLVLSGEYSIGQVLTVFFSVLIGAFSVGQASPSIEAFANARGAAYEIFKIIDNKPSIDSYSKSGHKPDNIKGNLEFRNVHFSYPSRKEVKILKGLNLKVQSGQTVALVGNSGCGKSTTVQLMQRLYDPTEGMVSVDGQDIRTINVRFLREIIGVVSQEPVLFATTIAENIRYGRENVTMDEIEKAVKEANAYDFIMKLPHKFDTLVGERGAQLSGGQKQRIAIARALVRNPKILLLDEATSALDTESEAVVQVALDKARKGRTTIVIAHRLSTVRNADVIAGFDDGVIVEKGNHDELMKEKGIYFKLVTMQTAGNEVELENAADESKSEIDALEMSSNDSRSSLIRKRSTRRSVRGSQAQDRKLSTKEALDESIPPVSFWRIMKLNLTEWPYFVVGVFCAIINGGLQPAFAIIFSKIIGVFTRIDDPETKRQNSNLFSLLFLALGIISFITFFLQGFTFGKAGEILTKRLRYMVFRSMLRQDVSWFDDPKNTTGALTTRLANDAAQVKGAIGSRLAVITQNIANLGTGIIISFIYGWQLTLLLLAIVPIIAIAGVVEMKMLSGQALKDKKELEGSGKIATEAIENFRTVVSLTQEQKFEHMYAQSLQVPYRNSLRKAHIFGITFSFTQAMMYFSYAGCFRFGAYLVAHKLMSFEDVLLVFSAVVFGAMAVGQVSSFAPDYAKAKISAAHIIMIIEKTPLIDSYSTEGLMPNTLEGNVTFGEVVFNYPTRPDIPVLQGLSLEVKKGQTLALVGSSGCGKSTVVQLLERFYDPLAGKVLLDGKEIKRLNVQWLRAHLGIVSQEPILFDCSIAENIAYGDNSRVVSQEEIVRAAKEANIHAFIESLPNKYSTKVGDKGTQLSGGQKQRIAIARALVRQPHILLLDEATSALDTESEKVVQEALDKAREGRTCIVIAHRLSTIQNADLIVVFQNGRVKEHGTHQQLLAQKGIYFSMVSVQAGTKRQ

| Structure (SMILES) | IC50 [1] [µM] | IC50 [2] [µM] | IC50 ([3]; PI alone) [nM] | other results |
| --- | --- | --- | --- | --- |
| C[C@@]12OC(=O)[C@]1([C@@H](O)[C@@H]1C=CCCC1)NC(=O)[C@@H]2CCCl [Marizomib] | 0.0329 | 0.0614 | – | – |
| COC[C@H](NC(=O)c1cnc(C)s1)C(=O)N[C@@H](COC)C(=O)N[C@@H](Cc1ccccc1)C(=O)[C@@]1(C)CO1 [Oprozomib] | 0.221 | 1.47 | 1320 | – |
| CC(C)C[C@H](NC(=O)[C@H](CCc1ccccc1)NC(=O)CN1CCOCC1)C(=O)N[C@@H](Cc1ccccc1)C(=O)N[C@@H](CC(C)C)C(=O)[C@@]1(C)CO1 [CFZ, carfilzomib] | 0.0785 | 0.613 | – | IC50 ([3]; read-out: CFZ): 892 nM; IC50 [4]: 824 nM; IC50 ([5]; read-out: CFZ): 0.0672 µM; IC50 [6]: 796 nM; IC50 ([7]; read-out: CFZ): 0.0048 µM |
| COC(=O)[C@H]1[C@H]2C[C@@H]3c4[nH]c5cc(OC)ccc5c4CCN3C[C@H]2C[C@@H](OC(=O)c2cc(OC)c(OC)c(OC)c2)[C@@H]1OC [RSP, reserpine] | – | – | – | MitoTracker Green FM and MVB003 efflux (flow cytometry) in ABCB1-overexpressing [8]: Addition of VPM or reserpine (RSP) in the micromolar range led to a sizable, dose-dependent increase in cellular fluorescence |
| CC(C)C[C@H](NC(=O)[C@@H](NC(=O)c1cccc(-c2ccccc2)n1)[C@@H](C)O)B(O)O [Delanzomib] | 0.0805 | 0.294 | 1040 | – |
| Cc1[nH]c2ccccc2c1CCNCc1ccc(/C=C/C(=O)NO)cc1 [Panobinostat] | 0.0495 | 0.22 | – | – |
| CC(C)C[C@H](NC(=O)CNC(=O)c1cc(Cl)ccc1Cl)B(O)O [Ixazomib] | 0.345 | 0.693 | 1280 | – |
| CC(C)C[C@H](NC(=O)[C@H](Cc1ccccc1)NC(=O)c1cnccn1)B(O)O [BTZ, bortezomib] | 0.0268 | 0.0693 | 156 | IC50 ([3]; read-out: BTZ): 89.3 nM; IC50 ([5]; read-out: BTZ): 1.34 µM; IC50 ([7]; read-out: BTZ): 0.0063 µM |
